Assays:
Type in all cases: functional, cell-based
DU-145 = experiment: Cytotoxicity against human DU145 cells by MTT assay
MCF7 = experiment: Cytotoxicity against human MCF7 cells by MTT assay
HeLa = experiment: Cytotoxicity against human HeLa cells by MTT assay
A549 = experiment: Cytotoxicity against human A549 cells by MTT assay
[1] = Homo sapiens, DU-145, read-out: IC50
[2] = Homo sapiens, A549, read-out: IC50
[3] = Homo sapiens, MCF7, read-out: IC50
[4] = Homo sapiens, HeLa, read-out: IC50

Question: For COC(=O)C[C@H]1C[C@H](O)[C@@H](C)[C@@H](c2ccc(C)cc2)N1, which IC50 (DU-145; [1]) is on record?
Answer: The IC50 was 330 µM.

Question: And the IC50 (MCF7; mcf7)?
Answer: The IC50 was “Not Active”.

Question: And the IC50 (HeLa; hela)?
Answer: Its IC50 is “Not Active”.

Question: And the IC50 (A549; [2])?
Answer: Its IC50 is 97.6 µM.

Question: How did the IC50 (DU-145; [1]) turn out when COC(=O)C[C@H]1C[C@H](O)[C@@H](C)[C@@H](c2ccc(C(C)C)cc2)N1 was run?
Answer: The IC50 was 27.4 µM.

Question: What about the IC50 (MCF7; [3]) of the same compound?
Answer: Its IC50 is 17.1 µM.

Question: And the IC50 (HeLa; [4])?
Answer: The IC50 was 18.2 µM.

Question: What about the IC50 (A549; a549) of the same compound?
Answer: Its IC50 is “Not Active”.

Question: For COC(=O)C[C@H]1C[C@@H](O)[C@H](C)[C@@H](c2ccccc2)N1, which IC50 (DU-145; [1]) is on record?
Answer: Its IC50 is 64.1 µM.

Question: What about the IC50 (MCF7; [3]) of the same compound?
Answer: Its IC50 is 35.6 µM.

Question: What about the IC50 (HeLa; [4]) of the same compound?
Answer: The IC50 was 35.2 µM.

Question: What about the IC50 (A549; [2]) of the same compound?
Answer: The IC50 was 34.6 µM.

Question: With C[C@H]1[C@H](O)C[C@@H](CC(=O)O)N[C@H]1c1ccccc1 as the compound, how does the IC50 (DU-145; [1]) read?
Answer: The IC50 was 46.5 µM.

Question: And the IC50 (MCF7; [3])?
Answer: The IC50 was 23.1 µM.

Question: And the IC50 (HeLa; [4])?
Answer: The IC50 was 33.4 µM.

Question: And the IC50 (A549; [2])?
Answer: The IC50 was 28.9 µM.

Question: What does the source list for COc1ccc([C@H]2N[C@@H](CC(=O)O)C[C@H](O)[C@H]2C)cc1?
Answer: IC50 (DU-145; [1]): 15.7 µM; IC50 (MCF7; [3]): 12.5 µM; IC50 (HeLa; [4]): 19.9 µM; IC50 (A549; [2]): 20.1 µM

Question: Which results are given for COC(=O)C[C@H]1C[C@@H](O)[C@@H](C)[C@@H](c2ccc(C)cc2)N1?
Answer: IC50 (DU-145; [1]): 49.7 µM; IC50 (MCF7; [3]): 12.2 µM; IC50 (HeLa; [4]): 13.4 µM; IC50 (A549; [2]): 29 µM

Question: Which results are given for COc1cccc2c1C(=O)c1c(O)c3c(c(O)c1C2=O)C[C@@](O)(C(=O)CO)C[C@@H]3O[C@H]1C[C@H](N)[C@H](O)[C@H](C)O1 [DOXORUBICIN]?
Answer: IC50 (MCF7; [3]): 0.6 µM; IC50 (HeLa; [4]): 0.7 µM; IC50 (A549; [2]): 0.6 µM

Question: With COC(=O)C[C@H]1C[C@@H](O)[C@@H](C)[C@@H](c2ccc(C(C)C)cc2)N1 as the compound, how does the IC50 (DU-145; [1]) read?
Answer: Its IC50 is 110 µM.

Question: And the IC50 (MCF7; mcf7)?
Answer: The IC50 was “Not Active”.

Question: What about the IC50 (HeLa; hela) of the same compound?
Answer: The IC50 was “Not Active”.

Question: What about the IC50 (A549; a549) of the same compound?
Answer: The IC50 was “Not Active”.

Question: Which IC50 (DU-145; [1]) does the source give for COC(=O)C[C@H]1C[C@H](O)[C@@H](C)[C@@H](c2ccc(OC)cc2)N1 here?
Answer: Its IC50 is 6.5 µM.

Question: And the IC50 (MCF7; [3])?
Answer: The IC50 was 5.1 µM.

Question: What about the IC50 (HeLa; [4]) of the same compound?
Answer: Its IC50 is 5.3 µM.

Question: And the IC50 (A549; [2])?
Answer: Its IC50 is 5.4 µM.

Question: How did the IC50 (DU-145; [1]) turn out when COC(=O)C[C@@H]1C[C@@H](O)[C@H](C)[C@H](c2ccccc2)N1 was run?
Answer: The IC50 was 6.3 µM.

Question: And the IC50 (MCF7; [3])?
Answer: Its IC50 is 5.4 µM.

Question: What about the IC50 (HeLa; [4]) of the same compound?
Answer: The IC50 was 6.5 µM.

Question: And the IC50 (A549; [2])?
Answer: The IC50 was 8.5 µM.

Question: For COC(=O)C[C@H]1C[C@@H](O)[C@@H](C)[C@@H](c2ccc(OC)cc2)N1, which IC50 (DU-145; [1]) is on record?
Answer: Its IC50 is 12.6 µM.

Question: What about the IC50 (MCF7; [3]) of the same compound?
Answer: The IC50 was 10.4 µM.

Question: What about the IC50 (HeLa; [4]) of the same compound?
Answer: The IC50 was 11.5 µM.

Question: And the IC50 (A549; [2])?
Answer: Its IC50 is 23.5 µM.

Question: Which results are given for COC(=O)C[C@H]1C[C@H](O)[C@H](C)[C@@H](c2ccccc2)N1?
Answer: IC50 (DU-145; du-145): Not Active; IC50 (MCF7; mcf7): Not Active; IC50 (HeLa; [4]): 41.1 µM; IC50 (A549; [2]): 69.2 µM

Question: How did the IC50 (DU-145; [1]) turn out when COC(=O)C[C@@H]1C[C@H](O)[C@H](C)[C@H](c2ccccc2)N1 was run?
Answer: The IC50 was 11.3 µM.

Question: What about the IC50 (MCF7; [3]) of the same compound?
Answer: The IC50 was 12.3 µM.

Question: And the IC50 (HeLa; [4])?
Answer: Its IC50 is 14.2 µM.

Question: And the IC50 (A549; [2])?
Answer: Its IC50 is 20.5 µM.

Question: With C[C@H]1[C@H](O)C[C@@H](CCO)N[C@H]1c1ccccc1 as the compound, how does the IC50 (DU-145; [1]) read?
Answer: The IC50 was 41.6 µM.

Question: And the IC50 (MCF7; [3])?
Answer: The IC50 was 39.8 µM.

Question: And the IC50 (HeLa; [4])?
Answer: The IC50 was 31.5 µM.

Question: And the IC50 (A549; [2])?
Answer: The IC50 was 31.2 µM.

Question: For COc1ccc([C@H]2N[C@@H](CCO)C[C@H](O)[C@H]2C)cc1, which IC50 (DU-145; [1]) is on record?
Answer: The IC50 was 14.8 µM.

Question: And the IC50 (MCF7; [3])?
Answer: Its IC50 is 13.7 µM.

Question: What about the IC50 (HeLa; [4]) of the same compound?
Answer: The IC50 was 16.5 µM.

Question: And the IC50 (A549; [2])?
Answer: The IC50 was 17.6 µM.

Question: With COC(=O)C[C@H]1C[C@H](O)[C@@H](C)[C@@H](c2ccc(F)cc2)N1 as the compound, how does the IC50 (DU-145; du-145) read?
Answer: The IC50 was “Not Active”.

Question: And the IC50 (MCF7; [3])?
Answer: The IC50 was 18.2 µM.

Question: What about the IC50 (HeLa; [4]) of the same compound?
Answer: Its IC50 is 17.4 µM.

Question: What about the IC50 (A549; [2]) of the same compound?
Answer: The IC50 was 17.2 µM.

Question: COC(=O)C[C@H]1C[C@@H](O)[C@@H](C)[C@@H](c2ccc(F)cc2)N1 was tested. Which IC50 (DU-145; [1]) did it give?
Answer: The IC50 was 51.7 µM.

Question: What about the IC50 (MCF7; [3]) of the same compound?
Answer: Its IC50 is 15.6 µM.

Question: What about the IC50 (HeLa; [4]) of the same compound?
Answer: The IC50 was 19.8 µM.

Question: What about the IC50 (A549; [2]) of the same compound?
Answer: Its IC50 is 26.6 µM.

— ChEMBL document CHEMBL3352547, “A concise diastereoselective approach to enantioenriched substituted piperidines and their in vitro cytotoxicity evaluation” (Bioorg Med Chem Lett, 2014)
